Source: PubChem BioAssay (NCI)
Several values for one entry are separate records, joined by “and”; a condition that tells them apart may be missing. Equal entries are not always repeated.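 In this assay, cells in 96-well plates receive the compound at five concentrations for 48 hours. Endpoints are linearly interpolated between the surrounding concentrations. Here, GI50 denotes the concentration required for 50% inhibition of growth. TGI is the concentration that stops growth completely.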

Legend:
Assay in all cases: NCI tumour cell line growth inhibition, 48 h
[1] = system: 786-0 renal
[2] = system: HS 578T breast
[3] = system: MDA-MB-231 breast
[4] = system: BT-549 breast
[5] = system: DU-145 prostate
[6] = system: DMS 273 small cell lung
[7] = system: SNB-78 CNS
[8] = system: DMS 114 small cell lung
[9] = system: KM20L2 colon
[10] = system: DLD-1 colon
[11] = system: RXF-631 renal
[12] = system: M19-MEL melanoma
[13] = system: P388/ADR leukemia
[14] = system: P388 leukemia
[15] = system: SN12K1 renal
[16] = system: LXFL 529 NSCLC

Compound	TGI [1]	TGI [2]	TGI [3]	TGI [4]	TGI [5]	TGI [6]	TGI [7]	TGI [8]	TGI [9]	TGI [10]	TGI [12]	also measured
COC(=O)C(CC(C)C)NC(=O)C(NC(=O)c1ccc(-c2ccc(Cl)cc2Cl)o1)C(C)C (stereo unspecified)	35.1 µM	60.8 µM	35.3 µM	> 100 µM	74.4 µM							
CCOC(=O)Cc1cc(OC)c(OC)cc1/C(Cl)=C(\CO)c1ccc(OC)c(OC)c1						> 100 µM	> 100 µM	> 100 µM	> 100 µM	> 100 µM	> 100 µM	TGI [11]: > 100 µM
O=C(Nc1ccc([N+](=O)[O-])cc1)Nn1cnnc1		93.2 µM		69.7 µM	> 100 µM							
CCNC(=O)C(C)C1CCC2(C)C=CC(=O)C(C)=C2C1O (stereo unspecified)						> 100 µM	> 100 µM	> 100 µM	> 100 µM	> 100 µM	> 100 µM	TGI [13]: > 100 µM; TGI [14]: > 100 µM; TGI [15]: > 100 µM
Nc1nc(Nc2ccc(Cl)c(Cl)c2)nc2nc[nH]c12	31.3 µM	20.2 µM	31.3 µM	25.8 µM	21.6 µM							
COc1cc(OC2OC(CO)C(O)C(O)C2O)c2c(O)c3c(=O)cc(C)oc3cc2c1 (stereo unspecified)		> 100 µM		> 100 µM	> 100 µM							
FC(F)(F)c1ccc2c(c1)N(CCCNCCN1CCOCC1)c1ccccc1S2						36.7 µM	23.8 µM		17 µM	33.7 µM	22.5 µM	TGI [16]: 25.6 µM
OCC#CCNCl						> 100 µM	> 100 µM	> 100 µM	> 100 µM	> 100 µM	> 100 µM	TGI [13]: > 100 µM; TGI [14]: > 100 µM; TGI [15]: > 100 µM
N#C/C(=C\c1ccncc1)c1csc2ccccc12						73.6 µM	73.8 µM		54.6 µM	96.9 µM	> 91.2 µM	TGI [13]: 25.2 µM; TGI [14]: 39.2 µM; TGI [15]: > 77.7 µM
COc1ccccc1/C=C(/C)[N+](=O)[O-]	> 100 µM	29.3 µM and 26.9 µM	17.7 µM and 7.87 µM		3.12 µM and 2.36 µM							
CCCCCC(=O)N[C@@H](c1ccco1)[C@@H](O)C(=O)O[C@H]1C[C@@]2(O)[C@@H](OC(=O)c3ccccc3)[C@@H]3[C@]4(OC(C)=O)CO[C@@H]4C[C@H](O)[C@@]3(C)C(=O)[C@H](OC(C)=O)C(=C1C)C2(C)C		0.0309 µM and 0.025 µM			0.0101 µM							GI50 [3]: 0.00211 µM; GI50 [4]: 0.00109 µM
S=c1sc2c(s1)SC(c1ccccc1)CS2 (stereo unspecified)						> 100 µM	> 100 µM	> 100 µM	> 100 µM	> 100 µM	> 100 µM	TGI [13]: > 100 µM; TGI [14]: > 100 µM; TGI [15]: > 100 µM
Cc1ccc(/C=C2\Sc3scc(-c4ccccc4)[n+]3C2=O)cc1	> 56 µM	37.5 µM	65 µM	50.9 µM	> 65.9 µM							
O=C(NN1C(=O)C(Cl)C1c1ccccc1O)c1ccccc1O (stereo unspecified)								55.2 µM	> 100 µM			TGI [16]: > 100 µM
Brc1ccc(C2C3CSc4ccccc4C3=NN2c2ccccc2)cc1 (stereo unspecified)	> 100 µM	> 100 µM	> 100 µM	> 100 µM	> 100 µM							
Cc1c(O)c(=O)ccn1CCN	> 100 µM					> 100 µM	> 100 µM	> 100 µM	> 100 µM	> 100 µM	> 100 µM	TGI [16]: > 100 µM; TGI [11]: > 100 µM
C[N+](C)(CCCCCC[N+](C)(C)CCCN1C(=O)c2cccc3cccc(c23)C1=O)CCCN1C(=O)c2cccc3cccc(c23)C1=O		> 100 µM	> 100 µM	> 100 µM	> 100 µM							
O=S(O)CCCCCSSc1ccccc1							> 100 µM	66.6 µM		> 100 µM	> 100 µM	TGI [16]: 37.9 µM
C/C(=C/C(=O)Nc1ccccc1)Nc1onc(C)c1C						> 100 µM	> 100 µM	> 100 µM	> 100 µM	> 100 µM	> 100 µM	TGI [14]: > 100 µM; TGI [15]: > 100 µM
CC(CSC(=N)N)C(N)=O (stereo unspecified)	> 100 µM	> 100 µM	> 100 µM	> 100 µM	> 100 µM							
